Measured values published in patent US20060148858A1, “1, 2-Azole derivatives with hypoglycemic and hypolipidemic activity” (priority 2002, published 2006).
Like-named read-outs stand apart in the source and are kept apart here.

What was measured:
PPARγ-RXRα heterodimer = biological target: T1, PPARγ-RXRα heterodimer (Homo sapiens, UniProt P37231); assay: PPARγ-RXRα heterodimer ligand activity, luciferase reporter in PPARγ:RXRα:4ERPP/CHO-K1 cells (Test Example 3); type: cell-based; settings: 18-48 hours, concentration for 50% of the maximum fold induction
T1 construct: expressed in transfected cells; host or cells: CHO-K1
T1 sequence (P37231 1-477 isoform P37231-2): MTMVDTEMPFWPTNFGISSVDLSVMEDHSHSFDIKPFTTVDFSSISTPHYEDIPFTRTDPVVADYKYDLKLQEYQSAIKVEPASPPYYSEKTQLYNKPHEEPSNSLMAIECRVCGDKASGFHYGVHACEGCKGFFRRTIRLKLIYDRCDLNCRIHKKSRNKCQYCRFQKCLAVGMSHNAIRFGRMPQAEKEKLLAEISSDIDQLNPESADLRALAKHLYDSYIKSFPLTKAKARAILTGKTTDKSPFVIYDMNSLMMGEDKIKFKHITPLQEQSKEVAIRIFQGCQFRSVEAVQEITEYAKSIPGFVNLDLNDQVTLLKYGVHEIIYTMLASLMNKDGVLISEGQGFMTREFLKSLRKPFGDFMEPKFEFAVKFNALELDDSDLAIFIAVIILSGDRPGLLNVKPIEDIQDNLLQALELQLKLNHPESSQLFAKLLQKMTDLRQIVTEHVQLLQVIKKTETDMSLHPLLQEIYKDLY
T1 sequence (P19793 1-462 partner): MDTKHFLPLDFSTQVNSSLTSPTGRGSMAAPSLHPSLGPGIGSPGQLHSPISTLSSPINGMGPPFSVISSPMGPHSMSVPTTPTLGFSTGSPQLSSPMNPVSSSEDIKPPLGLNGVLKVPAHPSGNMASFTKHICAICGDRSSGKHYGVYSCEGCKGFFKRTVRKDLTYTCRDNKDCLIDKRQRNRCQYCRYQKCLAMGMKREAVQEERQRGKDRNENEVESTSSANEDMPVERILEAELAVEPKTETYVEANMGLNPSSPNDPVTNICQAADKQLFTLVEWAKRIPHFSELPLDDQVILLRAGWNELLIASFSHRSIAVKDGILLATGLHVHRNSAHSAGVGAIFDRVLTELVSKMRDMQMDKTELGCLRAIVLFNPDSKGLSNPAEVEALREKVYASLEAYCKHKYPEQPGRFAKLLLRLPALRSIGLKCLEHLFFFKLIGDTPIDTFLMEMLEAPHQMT
Procedure, shortened: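 Stable CHO-K1 line co-expressing hPPARγ/RXR with 4ERPP-TK luciferase reporter, 2×10^4 cells per well, treated 18-48 h at 37° C. in HAM F12 with 0.1% fatty acid-free BSA. Luciferase fold induction versus untreated taken as 1; EC50 is concentration giving 50% of maximal fold induction.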

KKAY mice = assay: Hypoglycemic and hypolipidemic actions in mice (Test Example 1); type: in vivo; settings: Mus musculus, po, 96 h, 0.005% in powdery diet, four days, non-treated group taken as 100%
Procedure, shortened: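 KKAY mice (9 to 12 weeks old, 5 per group) were fed diet containing 0.005% test compound ad libitum for four days. Plasma glucose and triglycerides from orbital venous blood were measured enzymatically, reported as % decrease relative to untreated group (100%).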

[1] = rate of decrease in blood glucose level, read-out: Hypoglycemic action (%)
[2] = rate of decrease in blood triglyceride level, read-out: Hypolipidemic action (%)

Compound	EC50 (PPARγ-RXRα heterodimer) [nM]	melting point [°C]	inhibition in vivo at 0.005 % in diet (KKAY mice; [1]) [%]	inhibition in vivo at 0.005 % in diet (KKAY mice; [2]) [%]
CCC(CC)c1nn(-c2ccc(C(F)(F)F)nn2)cc1CCCOc1c(C)cccc1CC(=O)O [Example 340, [2-(3-{3-(1-ethylpropyl)-1-[6-(trifluoromethyl)pyridazin-3-yl]-1H-pyrazol-4-yl}propoxy)-3-methylphenyl]acetic acid]	22	76 to 77	49	55
CCCc1nn(-c2ccc(C(F)(F)F)cn2)cc1CCCOc1c(C)cccc1CC(=O)O [Example 319, [3-methyl-2-(3-{3-propyl-1-[5-(trifluoromethyl)-2-pyridinyl]-1H-pyrazol-4-yl}propoxy)phenyl]acetic acid]	26	134 to 135		
CCOc1nn(-c2ccc(C(F)(F)F)cn2)cc1CCCOc1ccccc1CC(=O)O [Example 31, (2-(3-{3-ethoxy-1-[5-(trifluoromethyl)-2-pyridyl]-1H-pyrazol-4-yl}propoxy)phenyl]acetic acid]	35	83 to 84	50	69
COc1ccc(CC(=O)O)cc1OCCCc1cn(-c2ccc(C(F)(F)F)cn2)nc1C1CCCCC1 [Example 304, [3-(3-{3-cyclohexyl-1-[5-(trifluoromethyl)-2-pyridinyl]-1H-pyrazol-4-yl}propoxy)-4-methoxyphenyl]acetic acid]	40	117 to 118		
O=C(O)CCc1cc(OCCCc2cn(-c3ccc(C(F)(F)F)cn3)nc2-c2ccccc2)nn1-c1ccccc1 [Example 125, 3-[1-phenyl-3-(3-{3-phenyl-1-[5-(trifluoromethyl)-2-pyridyl]-1H-pyrazol-4-yl}propoxy)-1H-pyrazol-5-yl]propionic acid]	26	175 to 176		
CCOc1nn(-c2ccc(C(F)(F)F)cn2)cc1CCCCOc1ccccc1CC(=O)O [Example 137, [2-(4-{3-ethoxy-1-[5-(trifluoromethyl)-2-pyridyl]-1H-pyrazol-4-yl}butoxy)phenyl]acetic acid]	35	109 to 110		
CCCc1nn(-c2ccc(C(F)(F)F)cn2)cc1CCCCOc1cc(CCC(=O)O)n(-c2ccccc2)n1 [Example 58, 3-[1-phenyl-3-(4-{3-propyl-1-[5-(trifluoromethyl)-2-pyridinyl]-1H-pyrazol-4-yl}butoxy)-1H-pyrazol-5-yl]propanoic acid]	43	123 to 124		
CCc1cccc(CC(=O)O)c1OCCCc1cn(-c2ccc(C(F)(F)F)cn2)nc1C(C)C [Example 227, [3-ethyl-2-(3-{3-isopropyl-1-[5-(trifluoromethyl)-2-pyridinyl]-1H-pyrazol-4-yl}propoxy)phenyl]acetic acid]	22	155 to 156	43	26
CCOc1nn(-c2ccc(C(F)(F)F)cn2)cc1CCCOc1cc(CCC(=O)O)n(-c2ccccc2)n1 [Example 42, 3-[3-(3-{3-ethoxy-1-[5-(trifluoromethyl)-2-pyridyl]-1H-pyrazol-4-yl}propoxy)-1-phenyl-1H-pyrazol-5-yl]propionic acid]	19	121 to 122	32	19
CCOc1nn(-c2ccc(C(F)(F)F)cn2)cc1CCCOc1ccc(CCC(=O)O)c(OC(C)C)c1 [Example 116, 3-[4-(3-{3-ethoxy-1-[5-(trifluoromethyl)-2-pyridinyl]-1H-pyrazol-4-yl}propoxy)-2-isopropoxyphenyl]propanoic acid]	82	104 to 105		
CC(C)c1nn(-c2ccc(C(F)(F)F)cn2)cc1CCCOc1cc(CCC(=O)O)n(-c2ccccc2)n1 [Example 24, 3-[3-(3-{3-isopropyl-1-[5-(trifluoromethyl)-2-pyridyl]-1H-pyrazol-4-yl}propoxy)-1-phenyl-1H-pyrazol-5-yl]propionic acid]	38	139 to 140		
COc1cccc(CC(=O)O)c1OCCCc1cn(-c2ccc(C(F)(F)F)cn2)nc1C(C)C [Example 181, [2-(3-{3-isopropyl-1-[5-(trifluoromethyl)-2-pyridyl]-1H-pyrazol-4-yl}propoxy)-3-methoxyphenyl]acetic acid]	75	142 to 143	49	49
CCC(CC)c1nn(-c2ccc(C(F)(F)F)cn2)cc1CCCOc1c(C)cccc1CC(=O)O [Example 213, [2-(3-{3-(1-ethylpropyl)-1-[5-(trifluoromethyl)-2-pyridyl]-1H-pyrazol-4-yl}propoxy)-3-methylphenyl]acetic acid]	7.8	125 to 126	51	52
O=C(O)CCc1cc(OCCCc2cn(-c3ccc(C(F)(F)F)cn3)nc2C2CCCCC2)nn1-c1ccccc1 [Example 189, 3-[3-(3-{3-cyclohexyl-1-[5-(trifluoromethyl)-2-pyridyl]-1H-pyrazol-4-yl}propoxy)-1-phenyl-1H-pyrazol-5-yl]propionic acid]	14	182 to 183	50	38
CCOc1nn(-c2ccc(C(F)(F)F)cn2)cc1CCCOc1cccc(CC(=O)O)c1 [Example 30, [3-(3-{3-ethoxy-1-[5-(trifluoromethyl)-2-pyridyl]-1H-pyrazol-4-yl}propoxy)phenyl]acetic acid]	210	134 to 135	35	58
CCCc1nn(-c2ccc(C(F)(F)F)cn2)cc1CCCOc1c(Br)cccc1CC(=O)O [Example 237, [3-bromo-2-(3-{3-propyl-1-[5-(trifluoromethyl)-2-pyridinyl]-1H-pyrazol-4-yl}propoxy)phenyl]acetic acid]	17	145 to 146		
CCCc1nn(-c2ccc(C(F)(F)F)cn2)cc1CCCOc1cc(CCC(=O)O)n(-c2ccccc2)n1 [Example 43, 3-[1-phenyl-3-(3-{3-propyl-1-[5-(trifluoromethyl)-2-pyridyl]-1H-pyrazol-4-yl}propoxy)-1H-pyrazol-5-yl]propionic acid]	53	149 to 150		
Cc1cccc(CC(=O)O)c1OCCCc1cn(-c2ccc(C(F)(F)F)cn2)nc1C1CCCCC1 [Example 316, [2-(3-{3-cyclohexyl-1-[5-(trifluoromethyl)-2-pyridinyl]-1H-pyrazol-4-yl}propoxy)-3-methylphenyl]acetic acid]	3.8	184 to 185		
Cc1cccc(CC(=O)O)c1OCCCc1cn(-c2ccc(C(F)(F)F)nn2)nc1C(C)(C)C [Example 367, [2-(3-{3-tert-butyl-1-[6-(trifluoromethyl)pyridazin-3-yl]-1H-pyrazol-4-yl}propoxy)-3-methylphenyl]acetic acid]	41	96 to 97		
CCOc1nn(-c2ccc(C(F)(F)F)cn2)cc1CCCCOc1cc(CCC(=O)O)n(-c2ccccc2)n1 [Example 104, 3-[3-(4-{3-ethoxy-1-[5-(trifluoromethyl)-2-pyridinyl]-1H-pyrazol-4-yl}butoxy)-1-phenyl-1H-pyrazol-5-yl]propanoic acid]	34	138 to 139		
CCOc1ccc(CC(=O)O)cc1OCCCc1cn(-c2ccc(C(F)(F)F)cn2)nc1C1CCCCC1 [Example 201, [3-(3-{3-cyclohexyl-1-[5-(trifluoromethyl)-2-pyridyl]-1H-pyrazol-4-yl}propoxy)-4-ethoxyphenyl]acetic acid]	63	134 to 135		
CCCc1nn(-c2ccc(C(F)(F)F)cn2)cc1CCCOc1ccc(CCC(=O)O)c(OCC)c1 [Example 98, 3-[2-ethoxy-4-(3-{3-propyl-1-[5-(trifluoromethyl)-2-pyridinyl]-1H-pyrazol-4-yl}propoxy)phenyl]propanoic acid]	110	119 to 120		
